{"source": "ChEMBL document CHEMBL4342403", "about": "“New evolutions in the BACE1 inhibitor field from 2014 to 2018” (Bioorg Med Chem Lett, 2019)", "key": {"Rattus norvegicus [1]": {"test_system": "Rattus norvegicus", "assay": "In vivo inhibition of BACE1 in Sprague Dawley rat assessed as reduction in amyloidbeta 40 level in brain at 3 mg/kg, po by ELISA relative to control", "format": "functional"}, "[2]": {"assay": "Drug uptake in Sprague Dawley rat brain at 3 mg/kg, po by UPLC-MS/MS analysis", "format": "ADME, organism-based", "conditions": "in vivo"}, "P-glycoprotein (ABCB1)": {"molecular_target": "P-glycoprotein (ABCB1) (Homo sapiens, UniProt P08183)", "sequence (P08183 whole entry)": "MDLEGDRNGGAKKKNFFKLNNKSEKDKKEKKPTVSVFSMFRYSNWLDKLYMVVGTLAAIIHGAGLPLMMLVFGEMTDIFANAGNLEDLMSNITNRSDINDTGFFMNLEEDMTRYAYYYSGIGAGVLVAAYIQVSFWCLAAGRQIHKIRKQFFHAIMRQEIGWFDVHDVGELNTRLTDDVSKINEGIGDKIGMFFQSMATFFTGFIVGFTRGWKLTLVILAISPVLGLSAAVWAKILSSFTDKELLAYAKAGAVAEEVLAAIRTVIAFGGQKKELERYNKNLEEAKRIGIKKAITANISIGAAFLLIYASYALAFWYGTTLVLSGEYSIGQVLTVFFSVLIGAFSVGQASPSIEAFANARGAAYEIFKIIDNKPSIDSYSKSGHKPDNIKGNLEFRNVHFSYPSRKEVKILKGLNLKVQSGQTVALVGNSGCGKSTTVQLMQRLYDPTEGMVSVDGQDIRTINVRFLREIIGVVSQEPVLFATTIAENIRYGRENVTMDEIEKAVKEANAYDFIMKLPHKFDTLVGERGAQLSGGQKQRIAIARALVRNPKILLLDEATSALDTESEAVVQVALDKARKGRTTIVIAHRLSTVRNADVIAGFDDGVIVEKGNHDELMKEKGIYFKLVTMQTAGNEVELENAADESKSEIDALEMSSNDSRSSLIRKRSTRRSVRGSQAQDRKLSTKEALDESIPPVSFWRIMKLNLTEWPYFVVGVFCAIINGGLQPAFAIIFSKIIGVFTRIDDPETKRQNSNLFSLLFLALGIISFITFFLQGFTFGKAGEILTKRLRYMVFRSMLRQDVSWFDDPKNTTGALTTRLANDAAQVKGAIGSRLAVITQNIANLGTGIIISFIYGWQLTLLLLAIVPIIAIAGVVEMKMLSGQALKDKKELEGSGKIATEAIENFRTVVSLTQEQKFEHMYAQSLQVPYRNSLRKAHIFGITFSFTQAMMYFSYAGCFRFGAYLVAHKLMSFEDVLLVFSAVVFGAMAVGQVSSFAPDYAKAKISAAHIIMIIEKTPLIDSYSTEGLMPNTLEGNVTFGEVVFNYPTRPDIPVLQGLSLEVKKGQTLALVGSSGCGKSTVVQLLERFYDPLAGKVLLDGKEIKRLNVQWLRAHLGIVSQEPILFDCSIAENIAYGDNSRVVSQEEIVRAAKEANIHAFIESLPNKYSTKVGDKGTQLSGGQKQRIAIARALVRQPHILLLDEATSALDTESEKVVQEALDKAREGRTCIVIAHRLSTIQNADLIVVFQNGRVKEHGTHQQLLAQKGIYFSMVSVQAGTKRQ", "assay": "Substrate activity at P-glycoprotein (unknown origin) in MDCK-MDR1cells assessed as efflux ratio incubated over 60 mins by LC-MS/MS analysis", "conditions": "MDCK-MDR1"}, "Beta-secretase 1 [3]": {"molecular_target": "Beta-secretase 1 (Cricetulus griseus, UniProt G3IAK4)", "sequence (G3IAK4 whole entry, the tested form may be a part)": "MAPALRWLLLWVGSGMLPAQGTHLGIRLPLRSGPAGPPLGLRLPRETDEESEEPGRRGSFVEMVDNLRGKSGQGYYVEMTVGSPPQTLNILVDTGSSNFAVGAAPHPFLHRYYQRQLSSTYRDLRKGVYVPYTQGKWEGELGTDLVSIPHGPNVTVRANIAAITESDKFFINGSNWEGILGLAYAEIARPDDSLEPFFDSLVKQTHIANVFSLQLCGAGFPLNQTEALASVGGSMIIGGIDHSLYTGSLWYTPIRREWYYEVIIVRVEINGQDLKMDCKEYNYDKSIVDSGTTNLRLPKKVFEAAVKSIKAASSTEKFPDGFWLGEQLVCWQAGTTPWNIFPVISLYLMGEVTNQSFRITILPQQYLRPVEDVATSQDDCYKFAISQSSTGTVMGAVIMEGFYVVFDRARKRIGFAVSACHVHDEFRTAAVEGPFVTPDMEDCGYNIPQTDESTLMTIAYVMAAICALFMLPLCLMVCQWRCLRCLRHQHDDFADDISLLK", "assay": "Inhibition of BACE1 in CHO cells expressing human APP assessed as reduction in amyloidbeta (1 to 40 residues) level incubated for 24 hrs by immunoassay method", "format": "cell-based"}, "Homo sapiens [4]": {"test_system": "Homo sapiens", "assay": "In vivo inhibition of BACE1 in human assessed as reduction in amyloidbeta40 level in CSF at 85 mg, qd administered for 3 months relative to control", "format": "functional"}, "Mus musculus": {"test_system": "Mus musculus", "assay": "In vivo inhibition of BACE1 in C57B1/6J mouse assessed as reduction in amyloidbeta 40 level in brain at 30 mg/kg, po measured at 4 hrs post dose by AlphaLISA relative to control", "format": "functional"}, "Homo sapiens [5]": {"test_system": "Homo sapiens", "assay": "In vivo inhibition of BACE1 in human assessed as reduction in amyloidbeta40 level in CSF at 25 mg relative to control", "format": "functional"}, "Homo sapiens [6]": {"test_system": "Homo sapiens", "assay": "In vivo inhibition of BACE1 in human assessed as reduction in amyloidbeta40 level in CSF at 50 mg relative to control", "format": "functional"}, "Homo sapiens [7]": {"test_system": "Homo sapiens", "assay": "In vivo inhibition of BACE1 in human assessed as reduction in amyloidbeta40 level in CSF at 100 mg relative to control", "format": "functional"}, "Homo sapiens [8]": {"test_system": "Homo sapiens", "assay": "In vivo inhibition of BACE1 in human assessed as reduction in amyloidbeta40 level in CSF at 200 mg relative to control", "format": "functional"}, "Beta-secretase 1 [9]": {"molecular_target": "T1, Beta-secretase 1 (Homo sapiens, UniProt P56817)", "T1 sequence (P56817 whole entry)": "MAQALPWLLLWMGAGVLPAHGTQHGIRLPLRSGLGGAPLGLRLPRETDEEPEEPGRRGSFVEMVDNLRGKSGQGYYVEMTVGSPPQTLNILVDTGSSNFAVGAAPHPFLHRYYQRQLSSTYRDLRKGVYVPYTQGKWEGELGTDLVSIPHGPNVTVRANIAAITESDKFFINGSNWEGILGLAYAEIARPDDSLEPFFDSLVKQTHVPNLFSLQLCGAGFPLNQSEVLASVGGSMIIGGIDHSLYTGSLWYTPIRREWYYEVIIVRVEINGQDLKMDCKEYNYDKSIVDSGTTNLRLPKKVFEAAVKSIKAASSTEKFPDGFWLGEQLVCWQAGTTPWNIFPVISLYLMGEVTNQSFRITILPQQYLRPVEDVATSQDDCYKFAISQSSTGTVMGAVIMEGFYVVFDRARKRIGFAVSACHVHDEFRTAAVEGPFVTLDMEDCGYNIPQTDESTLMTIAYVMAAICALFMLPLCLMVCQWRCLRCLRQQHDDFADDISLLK", "assay": "Inhibition of BACE1 (unknown origin) by cell-based assay"}, "Beta-secretase 1 [10]": {"molecular_target": "T1, Beta-secretase 1", "assay": "Inhibition of BACE1 in human H4 cells transfected with APP695 assessed as […] incubated for 18 hrs by ELISA", "format": "cell-based"}, "[11]": {"assay": "Dissociation constant, pKa of the compound", "format": "physicochemical"}, "Homo sapiens [12]": {"test_system": "Homo sapiens", "assay": "In vivo inhibition of BACE1 in human assessed as reduction in amyloidbeta40 level in CSF at 12 mg administered once daily for 7 days relative to baseline", "format": "functional"}, "Homo sapiens [13]": {"test_system": "Homo sapiens", "assay": "In vivo inhibition of BACE1 in human assessed as reduction in amyloidbeta40 level in CSF at 40 mg administered once daily for 7 days relative to baseline", "format": "functional"}, "Homo sapiens [14]": {"test_system": "Homo sapiens", "assay": "In vivo inhibition of BACE1 in human assessed as reduction in amyloidbeta40 level in CSF at 60 mg administered once daily for 7 days relative to baseline", "format": "functional"}, "Beta-secretase 1 [15]": {"molecular_target": "T1, Beta-secretase 1", "assay": "Inhibition of BACE1 (unknown origin)"}, "Beta-secretase 2 [16]": {"molecular_target": "T2, Beta-secretase 2 (Homo sapiens, UniProt Q9Y5Z0)", "T2 sequence (Q9Y5Z0 whole entry)": "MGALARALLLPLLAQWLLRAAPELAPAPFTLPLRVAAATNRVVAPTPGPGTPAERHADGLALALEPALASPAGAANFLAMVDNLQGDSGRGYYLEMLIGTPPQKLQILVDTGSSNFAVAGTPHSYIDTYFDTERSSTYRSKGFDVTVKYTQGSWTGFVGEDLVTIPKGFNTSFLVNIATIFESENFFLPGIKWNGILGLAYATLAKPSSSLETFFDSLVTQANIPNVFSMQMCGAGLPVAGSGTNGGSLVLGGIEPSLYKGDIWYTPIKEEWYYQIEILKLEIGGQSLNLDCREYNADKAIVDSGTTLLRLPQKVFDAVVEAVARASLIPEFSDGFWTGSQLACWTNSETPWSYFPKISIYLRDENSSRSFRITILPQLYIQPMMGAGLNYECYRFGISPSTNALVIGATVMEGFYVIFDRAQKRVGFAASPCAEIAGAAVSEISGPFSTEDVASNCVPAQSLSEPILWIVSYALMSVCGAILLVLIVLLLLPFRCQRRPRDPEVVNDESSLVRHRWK", "assay": "Inhibition of BACE2 (unknown origin)"}, "Canis familiaris [17]": {"test_system": "Canis familiaris", "assay": "In vivo inhibition of BACE1 in dog assessed as reduction in amyloidbeta level in CSF at 1 mg/kg, po measured at 24 hrs post dose relative to control", "format": "functional", "conditions": "Canis lupus familiaris"}, "Canis familiaris [18]": {"test_system": "Canis familiaris", "assay": "In vivo inhibition of BACE1 in dog assessed as reduction in amyloidbeta level in CSF at 1 mg/kg, po measured at 48 hrs post dose relative to control", "format": "functional", "conditions": "Canis lupus familiaris"}, "Homo sapiens [19]": {"species_on_record": "Homo sapiens", "assay": "Selectivity ratio of IC50 for human BACE2 to IC50 for human BACE1"}, "Beta-secretase 1 [20]": {"molecular_target": "T1, Beta-secretase 1", "assay": "Inhibition of human BACE1 catalytic domain preincubated for 30 mins followed by QSY7-EISEVNLDAEFC-Europium-amide substrate addition and measured after […] by HTRF assay"}, "Beta-secretase 2 [21]": {"molecular_target": "T2, Beta-secretase 2", "assay": "Inhibition of human BACE2 preincubated for 30 mins followed by QSY7- EISEVNLDAEFC-Eu-amide substrate addition and measured after […] by HTRF assay"}, "Rattus norvegicus [22]": {"test_system": "Rattus norvegicus", "assay": "In vivo inhibition of BACE1 in CD-IGS rat assessed as reduction in amyloidbeta 40 level in CSF at 10 mg/kg, po measured at 3 hrs post dose by sandwich ELISA relative to control", "format": "functional"}}, "data": [{"smiles": "[2H]C([2H])([2H])Oc1cnc(C(=O)Nc2ccc(F)c([C@@]3(C)N=C(N)[C@@](C)(F)C[C@@H]3F)c2)cn1", "values": [{"measurement": "inhibition in vivo at 3 mg/kg", "setting": "Rattus norvegicus [1]", "result": 52, "unit": "%"}, {"measurement": "Drug uptake", "setting": "[2]", "result": 610, "unit": "ng/g"}, {"measurement": "efflux ratio at 1 h", "setting": "P-glycoprotein (ABCB1)", "result": 0.85}]}, {"smiles": "C[C@]1(c2nc(NC(=O)c3ncc(C#N)cc3Cl)ccc2F)N=C(N)OCC1(F)F", "values": [{"measurement": "IC50", "setting": "Beta-secretase 1 [3]", "result": 8, "unit": "nM"}]}, {"smiles": "C[C@@]1(c2nc(NC(=O)c3ncc(C(F)(F)F)cc3Cl)ccc2F)CO[C@@](C)(C(F)(F)F)C(N)=N1", "values": [{"measurement": "inhibition (INH)", "setting": "Homo sapiens [4]", "result": ">90", "unit": "%"}]}, {"smiles": "Cc1cc(C#N)cnc1C(=O)Nc1ccc(F)c([C@@]2(C)N=C(N)C(C)(C)[S@@]3(=O)=NCC[C@@H]23)n1", "values": [{"measurement": "inhibition in vivo at 30 mg/kg", "setting": "Mus musculus", "result": 60, "unit": "%"}]}, {"smiles": "C[C@H]1OC[C@]2(c3cc(NC(=O)c4cnc(C(F)F)cn4)ccc3F)N=C(N)SC[C@H]12", "note": "[ELENBECESTAT]", "values": [{"measurement": "inhibition (INH)", "setting": "Homo sapiens [5]", "result": 56, "unit": "%"}, {"measurement": "inhibition (INH)", "setting": "Homo sapiens [6]", "result": 71, "unit": "%"}, {"measurement": "inhibition (INH)", "setting": "Homo sapiens [7]", "result": 83, "unit": "%"}, {"measurement": "inhibition (INH)", "setting": "Homo sapiens [8]", "result": 90, "unit": "%"}, {"measurement": "IC50", "setting": "Beta-secretase 1 [9]", "result": 7, "unit": "nM"}]}, {"smiles": "C[C@H]1C[C@H]2CSC(N)=N[C@@]2(c2cc(NC(=O)c3ccc(OC(F)F)cn3)ccc2F)CO1", "values": [{"measurement": "IC50", "setting": "Beta-secretase 1 [10]", "result": "< 1", "unit": "nM"}, {"measurement": "pKa", "setting": "[11]", "result": 8.3}]}, {"smiles": "CN1C(N)=N[C@](C)(c2cc(NC(=O)c3ccc(F)cn3)ccc2F)CS1(=O)=O", "note": "[VERUBECESTAT]", "values": [{"measurement": "inhibition (INH)", "setting": "Homo sapiens [12]", "result": 57, "unit": "%"}, {"measurement": "inhibition (INH)", "setting": "Homo sapiens [13]", "result": 79, "unit": "%"}, {"measurement": "inhibition (INH)", "setting": "Homo sapiens [14]", "result": 84, "unit": "%"}]}, {"smiles": "NC1=N[C@@]2(c3cc(NC(=O)c4ccc(C(F)(F)F)cn4)ccc3F)CO[C@H](C(F)(F)F)[C@H]2CO1", "values": [{"measurement": "IC50", "setting": "Beta-secretase 1 [15]", "result": 11.9, "unit": "nM"}, {"measurement": "IC50", "setting": "Beta-secretase 1 [9]", "result": 1.03, "unit": "nM"}, {"measurement": "IC50", "setting": "Beta-secretase 2 [16]", "result": 602, "unit": "nM"}, {"measurement": "inhibition in vivo at 1 mg/kg", "setting": "Canis familiaris [17]", "result": 65, "unit": "%"}, {"measurement": "inhibition in vivo at 1 mg/kg", "setting": "Canis familiaris [18]", "result": 55, "unit": "%"}]}, {"smiles": "CC(F)(F)[C@H]1OC[C@]2(c3cc(NC(=O)c4cnc(-n5cncn5)cn4)ccc3F)N=C(N)SC[C@H]12", "values": [{"measurement": "Ratio IC50", "setting": "Homo sapiens [19]", "result": "> 400"}]}, {"smiles": "COc1cnc2c(Nc3ccc(F)c([C@]4(C)CS(=O)(=O)N(C)C(N)=N4)c3)nccc2c1", "values": [{"measurement": "Ki", "setting": "Beta-secretase 1 [20]", "result": 2.6, "unit": "nM"}, {"measurement": "Ki", "setting": "Beta-secretase 2 [21]", "result": 3.5, "unit": "nM"}, {"measurement": "inhibition in vivo at 10 mg/kg", "setting": "Rattus norvegicus [22]", "result": 68, "unit": "%"}]}]}
